Experimental data reported in ChEMBL document CHEMBL5625249, “Optimization and antifungal activity of quinoline derivatives linked to chalcone moiety combined with FLC against Candida albicans” (Eur J Med Chem, 2023).
Values after ≈ are worked out from the molar mass of the structure shown. Active and inactive are the calls of the source. The rule behind the calls is not given here.

How the values were obtained:
[1] = Toxicity in Balb/c mouse infected with FLC-resistant Candida albicans ATCC 14053 assessed as weight loss at 2 mg/kg, ig measured daily for 6 days; assay type: organism-based; conditions: in vivo, po, 144 h, time 6 day
[2] = test system: Candida albicans; experiment: Antifungal activity against FLC-sensitive Candida albicans SC5314 measured after 24 hrs by microdilution method; assay type: functional
[3] = test system: Candida albicans; experiment: Antifungal activity against Clinical FLC-resistant Candida albicans 23 measured after 24 hrs by microdilution method; assay type: functional
[4] = test system: Candida albicans; experiment: Antifungal activity against clinical FLC-resistant Candida albicans 187 measured after 24 hrs by microdilution method; assay type: functional
[5] = test system: Candida albicans; experiment: Antifungal activity against clinical FLC-resistant Candida albicans 808 measured after 24 hrs by microdilution method; assay type: functional
[6] = test system: Candida albicans; experiment: Antifungal activity against clinical FLC-resistant Candida albicans 381 measured after 24 hrs by microdilution method; assay type: functional
[7] = test system: Candida albicans; experiment: Antifungal activity against clinical FLC-resistant Candida albicans 602 measured after 24 hrs by microdilution method; assay type: functional
[8] = test system: Candida albicans; experiment: Antifungal activity against clinical FLC-resistant Candida albicans 550 measured after 24 hrs by microdilution method; assay type: functional
[9] = test system: Candida albicans; experiment: Antifungal activity against clinical FLC-resistant Candida albicans 800 measured after 24 hrs by microdilution method; assay type: functional
[10] = test system: Candida albicans; experiment: Antifungal activity against clinical FLC-resistant Candida albicans 799 measured after 24 hrs by microdilution method; assay type: functional
[11] = test system: Candida albicans; experiment: Antifungal activity against clinical FLC-resistant Candida albicans 3816 measured after 24 hrs by microdilution method; assay type: functional
[12] = test system: Candida albicans; experiment: Antifungal activity against clinical FLC-resistant Candida albicans 4508 measured after 24 hrs by microdilution method; assay type: functional
[13] = test system: Candida albicans; experiment: Antifungal activity against clinical FLC-resistant Candida albicans 3511 measured after 24 hrs by microdilution method; assay type: functional
[14] = test system: Candida albicans; experiment: Antifungal activity against clinical FLC-resistant Candida albicans 4574 measured after 24 hrs by microdilution method; assay type: functional
[15] = test system: Candida albicans; experiment: Antifungal activity against FLC-resistant Candida albicans ATCC 10231 measured after 24 hrs by microdilution method; assay type: functional
[16] = test system: Candida albicans; experiment: Antifungal activity against FLC-resistant Candida albicans ATCC 14053 measured after 24 hrs by microdilution method; assay type: functional
[17] = test system: Candida albicans; experiment: Antifungal activity against FLC-resistant Candida albicans ATCC 14053 at 1 ug/mL measured over 48 hrs by time-killing assay; assay type: functional, organism-based; conditions: dose 1.0 µg/ml
[18] = test system: Candida albicans; experiment: Antifungal activity against FLC-resistant Candida albicans ATCC 14053 cultured in spider medium assessed as inhibition of hyphal formation at 1 ug/ml measured after 2 hrs by inverted microscopy; assay type: functional, organism-based; conditions: dose 1.0 µg/ml
[19] = test system: Candida albicans; experiment: Antifungal activity against FLC-resistant Candida albicans ATCC 14053 assessed as inhibition of hyphal formation by measuring down regulation of RAS1 gene expression at 8 ug/ml measured after 16 to 18 hrs by qRT-PCR analysis; assay type: functional, organism-based; conditions: dose 8.0 µg/ml, time 16-18 hrs
[20] = test system: Candida albicans; experiment: Antifungal activity against FLC-resistant Candida albicans ATCC 14053 assessed as inhibition of hyphal formation by measuring down regulation of CYR1 gene expression at 8 ug/ml measured after 16 to 18 hrs by qRT-PCR analysis; assay type: functional, organism-based; conditions: dose 8.0 µg/ml, time 16-18 hrs
[21] = test system: Candida albicans; experiment: Antifungal activity against FLC-resistant Candida albicans ATCC 14053 assessed as inhibition of hyphal formation by measuring down regulation of EFG1 gene expression at 8 ug/ml measured after 16 to 18 hrs by qRT-PCR analysis; assay type: functional, organism-based; conditions: dose 8.0 µg/ml, time 16-18 hrs
[22] = test system: Candida albicans; experiment: Antifungal activity against FLC-resistant Candida albicans ATCC 14053 assessed as inhibition of hyphal formation by measuring down regulation of ECE1 gene expression at 8 ug/ml measured after 16 to 18 hrs by qRT-PCR analysis; assay type: functional, organism-based; conditions: dose 8.0 µg/ml, time 16-18 hrs
[23] = test system: Candida albicans; experiment: Antifungal activity against FLC-resistant Candida albicans ATCC 14053 assessed as inhibition of hyphal formation by measuring down regulation of ALS3 gene expression at 8 ug/ml measured after 16 to 18 hrs by qRT-PCR analysis; assay type: functional, organism-based; conditions: dose 8.0 µg/ml, time 16-18 hrs
[24] = test system: Candida albicans; experiment: Antifungal activity against FLC-resistant Candida albicans ATCC 14053 assessed as inhibition of hyphal formation by measuring down regulation of HWP1 gene expression at 8 ug/ml measured after 16 to 18 hrs by qRT-PCR analysis; assay type: functional, organism-based; conditions: dose 8.0 µg/ml, time 16-18 hrs
[25] = test system: Candida albicans; experiment: Antifungal activity against FLC-resistant Candida albicans ATCC 14053 cultured in SD +10% FBS liquid medium assessed as inhibition of hyphal formation at 1 ug/ml measured after 2 hrs by inverted microscopy; assay type: functional, organism-based; conditions: dose 1.0 µg/ml
[26] = test system: Candida albicans; experiment: Induction of reactive oxygen species production in FLC-resistant Candida albicans ATCC 14053 at 1 ug/mL measured after 16 to 18 hrs by DCFH-DA staining based fluorescence assay; assay type: functional, organism-based; conditions: dose 1.0 µg/ml, time 16-18 hrs
[27] = test system: Candida albicans; experiment: Induction of mitochondrial membrane potential loss in FLC-resistant Candida albicans ATCC 14053 at 1 ug/mL measured after 16 to 18 hrs by JC-1 staining based fluorescence assay; assay type: functional, organism-based; conditions: dose 1.0 µg/ml, time 16-18 hrs
[28] = test system: Candida albicans; experiment: Antifungal activity against FLC-resistant Candida albicans ATCC 14053 assessed as reduction in intracellular ATP level at 1 ug/ml measured after 16 to 18 hrs by luminescence assay; assay type: functional, organism-based; conditions: dose 1.0 µg/ml, time 16-18 hrs
[29] = Toxicity in Balb/c mouse assessed as death at 2 mg/kg, ig measured daily for 6 days; assay type: organism-based; conditions: in vivo, po, 144 h, time 6 day
[30] = test system: Candida albicans; experiment: In vivo antifungal activity against FLC-resistant Candida albicans ATCC 14053 infected in Balb/c mouse assessed as survival rate at 2 mg/kg, ig measured daily for 6 days (Rvb < 20%); assay type: functional; conditions: ATCC 14053, po, 144 h, time 6 day
[31] = Toxicity in Balb/c mouse assessed as weight loss at 2 mg/kg, ig measured daily for 6 days; assay type: organism-based; conditions: in vivo, po, 144 h, time 6 day
[32] = test system: Candida albicans; experiment: In vivo antifungal activity against FLC-resistant Candida albicans ATCC 14053 infected in Balb/c mouse assessed as reduction in kidney fungal load at 2 mg/kg, ig measured after 6 days; assay type: functional, organism-based; conditions: time 6.0 day
[33] = test system: Candida albicans; experiment: In vivo antifungal activity against FLC-resistant Candida albicans ATCC 14053 infected in Balb/c mouse assessed as reduction in lung fungal load at 2 mg/kg, ig measured after 6 days; assay type: functional, organism-based; conditions: time 6.0 day
[34] = test system: Candida albicans; experiment: In vivo antifungal activity against FLC-resistant Candida albicans ATCC 14053 infected in Balb/c mouse assessed as increase in organ coefficients of thymus at 2 mg/kg, ig measured after 6 days; assay type: functional, organism-based; conditions: time 6.0 day
[35] = test system: Candida albicans; experiment: In vivo antifungal activity against FLC-resistant Candida albicans ATCC 14053 infected in Balb/c mouse assessed as increase in organ coefficients of spleen at 2 mg/kg, ig measured after 6 days; assay type: functional, organism-based; conditions: time 6.0 day
[36] = test system: Candida albicans; experiment: In vivo antifungal activity against FLC-resistant Candida albicans ATCC 14053 infected in Balb/c mouse assessed as restoration of normal kidney morphology at 2 mg/kg, ig measured after 6 days by H and E staining based histopathological analysis; assay type: functional, organism-based; conditions: time 6.0 day
[37] = test system: Candida albicans; experiment: In vivo antifungal activity against FLC-resistant Candida albicans ATCC 14053 infected in Balb/c mouse assessed as restoration of normal glomeruli morphology at 2 mg/kg, ig measured after 6 days by H and E staining based histopathological analysis; assay type: functional, organism-based; conditions: time 6.0 day
[38] = test system: Candida albicans; experiment: In vivo antifungal activity against FLC-resistant Candida albicans ATCC 14053 infected in Balb/c mouse assessed as restoration of normal lung morphology at 2 mg/kg, ig measured after 6 days by H and E staining based histopathological analysis; assay type: functional, organism-based; conditions: time 6.0 day
[39] = test system: Candida albicans; experiment: In vivo antifungal activity against FLC-resistant Candida albicans ATCC 14053 infected in Balb/c mouse assessed as reduction in severity of lesions in lungs at 2 mg/kg, ig measured after 6 days by H and E staining based histopathological analysis; assay type: functional, organism-based; conditions: time 6.0 day
[40] = test system: Candida albicans; experiment: In vivo antifungal activity against FLC-resistant Candida albicans ATCC 14053 infected in Balb/c mouse assessed as reduction in severity of lesions in kidney at 2 mg/kg, ig measured after 6 days by H and E staining based histopathological analysis; assay type: functional, organism-based; conditions: time 6.0 day
[41] = test system: Candida albicans; experiment: In vivo antifungal activity against FLC-resistant Candida albicans ATCC 14053 infected in Balb/c mouse assessed as reduction in renal injury at 2 mg/kg, ig measured after 6 days by H and E staining based histopathological analysis; assay type: functional, organism-based; conditions: time 6.0 day
[42] = test system: Candida albicans; experiment: In vivo antifungal activity against FLC-resistant Candida albicans ATCC 14053 infected in Balb/c mouse assessed as reduction in infiltration of inflammatory cells at 2 mg/kg, ig measured after 6 days by H and E staining based histopathological analysis; assay type: functional, organism-based; conditions: time 6.0 day
[43] = test system: Candida albicans; experiment: In vivo antifungal activity against FLC-resistant Candida albicans ATCC 14053 infected in Balb/c mouse assessed as removal of colonized fungi at 2 mg/kg, ig measured after 6 days by H and E staining based histopathological analysis; assay type: functional, organism-based; conditions: time 6.0 day

For `OC(Cn1cncn1)(Cn1cncn1)c1ccc(F)cc1F` [FLUCONAZOLE], the Activity [1] was “Toxic”, the MIC80 [2] was 5.79 µg/mL (≈ 18.9 µM) and the MIC80 [3] was over 40 µg/mL. The MIC80 [4] was over 40 µg/mL, the MIC80 [5] was over 40 µg/mL and the MIC80 [6] was over 40 µg/mL. The MIC80 [7] was over 40 µg/mL, the MIC80 [8] was over 40 µg/mL and the MIC80 [9] was over 40 µg/mL. The MIC80 [10] was over 40 µg/mL, the MIC80 [11] was over 40 µg/mL and the MIC80 [12] was over 40 µg/mL. The MIC80 [13] was over 40 µg/mL, the MIC80 [14] was over 40 µg/mL and the MIC80 [15] was over 40 µg/mL. For the same compound, the MIC80 [16] was over 40 µg/mL, the Activity [17] was “Active” and the inhibition [18] was “inactive”. For the same compound, the inhibition [19] was “Active”, the inhibition [20] was “Active” and the inhibition [21] was “Active”. The inhibition [22] was “Active”, the inhibition [23] was “Active” and the inhibition [24] was “Active”. For the same compound, the inhibition [25] was “inactive”, the Activity [26] was “Active” and the Activity [27] was “Active”. The Activity [28] was “Active”, the Activity [29] was “Non-Toxic” and the survival at 2 mg/kg [30] was 30%. For the same compound, the Activity [31] was “Non-Toxic”, the Activity [32] was “Active” and the Activity [33] was “inactive”. For the same compound, the Activity [34] was “Active”, the Activity [35] was “Active” and the Activity [36] was “inactive”. For the same compound, the Activity [37] was “inactive”, the Activity [38] was “inactive” and the Activity [39] was “inactive”. For the same compound, the Activity [40] was “inactive”, the Activity [41] was “inactive” and the Activity [42] was “inactive”. The Activity [43] was “inactive”.
